Tested on: C2C12 cells
Test: Myotube cell differentiation promotion test (Fusion index)
Assay type: cell-based, mouse
Details: 0.5 μM LDN-193189 with DMSO; 3 days; Comparative Example i2-2 55.1 ± 0.09
Procedure: (Cells) • Mouse Myoblasts C2C12 Cells (ATCC, CRL-1772) (Culture Mediums) • Growth culture medium composition: DMEM culture medium, 10% FBS, antibiotics added • Differentiation culture medium composition: DMEM culture medium, 0.5% FBS, antibiotics added C2C12 cells were cultivated using a growth culture medium in a T-75 flask (75 cm^2 U-shaped canted neck cell culture flask, commercially available from Corning Co., Ltd.). The T-75 flask was put into a CO2 incubator (5% CO2, 37° C., wet) and the C2C12 cells were cultured. The culture medium was replaced every other day, and when an 80% confluence was reached, the cells were collected and used for the test. Here, in the following test, regarding a well plate for culturing C2C12 cells, a plate coated with gelatin according to the following coating method was used. Pre-cultured cells were seeded in a 96-well plate for fluorescence observation at 4×10^4 cells/0.1 mL/well using a growth culture medium. The well plate was cultured in a CO2 incubator (5% CO2, 37° C.) for 2 days. […] After the culture medium was replaced, culturing was performed for 3 days, and after fixing, immunostaining with anti-myosin heavy chain (MHC) antibodies was performed. […] A total number of Hoechst positive nuclei and the number of MHC-positive nuclei were measured, and the Fusion index (% of MHC+nuclei) was calculated according to the following formula. […]

`c1ccc2c(-c3cnn4cc(-c5ccc(N6CCNCC6)cc5)cnc34)ccnc2c1` [Positive Control i2, 4-(6-(4-(piperazine-1-yl)phenyl)pyrazolo[1,5-a]pyrimidin-3-yl)quinoline] was tested, and the “Fusion index (% of MHC + nuclei)” value was 63.7 ± 0.88 %.

— patent US12102709B2, “Anti-obesity agent, anti-dementia agent, deodorant, anti-aging agent, anti-glycation agent, anti-type I allergy agent, hypotensive agent, flavor improving agent, muscle enhancing agent, and bone metabolism improving agent” (Mitsui Sugar Co., Ltd., priority 2018, dated 2024)
